Assay: In vitro inhibition of [3H]flunitrazepam binding to GABA-A receptor of rat cerebral cortex membranes
Type: cell membranes, Membrane

Row | SMILES | IC50 [nM]
1 | CNC(=O)c1cc2c(cn1)[nH]c1ccccc12 | 197
2 | CCOC(=O)c1cc2c(cn1)[nH]c1ccccc12 | 7
3 | O=C1NCCc2c1[nH]cc1nc3ccccc3c2-1 | 150
4 | CCc1c(C(=O)NC)[nH]cc2nc3ccccc3c1-2 | > 10000
5 | COC(=O)c1cc2c(cn1)[nH]c1ccccc12 [BETA-CCM] | 3.5

Next, values leading:

Row | IC50 [nM] | SMILES
6 | 42 | O=C1OCCc2c1[nH]cc1nc3ccccc3c2-1
7 | 27 | CCc1c(C(=O)OC)[nH]cc2nc3ccccc3c1-2

— ChEMBL document CHEMBL1124604, “Synthesis and benzodiazepine receptor affinities of rigid analogues of 3-carboxy-beta-carbolines: demonstration that the benzodiazepine receptor recognizes preferentially the s-cis conformation of the 3-carboxy group” (J Med Chem, 1989)
